Molecular target: Tyrosine-protein kinase BTK (Homo sapiens, UniProt Q06187)
Assay: LANCE-TR-FRET Assay: Assay Method B: BTK enzymatic activity was determined with the LANCE (Lanthanide Chelate Excite) TR-FRET (Time-resolved fluorescence resonance energy transfer) assay. In this assay, the potency (IC50) of each compound was determined from an eleven point (1:3 serial dilution; final compound concentration range in assay from 1 μM to 0.017 nM) titration curve using the following outlined procedure. To each well of a black non-binding surface Corning 384-well microplate (Corning Catalog #3820), 5 nL of compound (2000 fold dilution in final assay volume of 10 μL) was dispensed, followed by the addition of 7.5 μL of 1× kinase buffer (50 mM Hepes 7.5, 10 mM MgCl2, 0.01% Brij-35, 1 mM EGTA, 0.05% BSA & 1 mM DTT) containing 5.09 pg/μL (66.67 pM) of BTK enzyme (recombinant protein from baculovirus-transfected Sf9 cells: full-length BTK, 6HIS-tag cleaved). Following a 60 minute compound & enzyme incubation, each reaction was initiated by the addition of 2.5 μL 1× kinase buffer containing 8 μM biotinylated "A5" peptide (Biotin-EQEDEPEGDYFEWLE-NH2), and 100 μM ATP. The final reaction in each well of 10 μL consists of 50 pM hBTK, 2 μM biotin-A5-peptide, and 25 μM ATP. Phosphorylation reactions were allowed to proceed for 120 minutes. […]

Tyrosine-protein kinase BTK, sequence (Q06187 whole entry): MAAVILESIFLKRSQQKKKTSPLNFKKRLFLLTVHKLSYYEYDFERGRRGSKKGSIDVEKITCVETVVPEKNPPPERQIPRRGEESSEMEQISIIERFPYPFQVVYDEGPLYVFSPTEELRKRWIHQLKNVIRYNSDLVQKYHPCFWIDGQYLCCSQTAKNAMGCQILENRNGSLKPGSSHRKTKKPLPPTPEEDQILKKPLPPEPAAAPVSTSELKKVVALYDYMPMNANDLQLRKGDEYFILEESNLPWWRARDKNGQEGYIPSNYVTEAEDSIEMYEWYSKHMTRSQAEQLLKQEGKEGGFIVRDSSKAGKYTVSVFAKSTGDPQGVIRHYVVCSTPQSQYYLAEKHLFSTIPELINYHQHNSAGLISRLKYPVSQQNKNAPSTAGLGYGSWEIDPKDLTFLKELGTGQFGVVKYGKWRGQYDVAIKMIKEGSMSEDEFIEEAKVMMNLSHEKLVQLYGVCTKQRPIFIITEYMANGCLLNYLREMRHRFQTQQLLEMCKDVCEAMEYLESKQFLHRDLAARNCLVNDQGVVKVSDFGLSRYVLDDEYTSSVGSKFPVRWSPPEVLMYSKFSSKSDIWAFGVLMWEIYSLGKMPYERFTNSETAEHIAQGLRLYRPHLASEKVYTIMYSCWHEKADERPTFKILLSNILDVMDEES

**Q.** With `Cn1ncc2c1CCC[C@@H]2n1nc(-c2ccc(C(=O)Nc3cc(C(F)(F)F)ccn3)cc2)c2c(N)ncnc21` as the molecule, how does the IC50 read?
**A.** 2.7 nM
